Assay results taken from patent US20240174680A1, “CDK2 INHIBITORS AND METHODS OF USING THE SAME” (Cedilla Therapeutics, Inc., priority 2021, published 2024).

Experiments:
CDK2/Cyclin E1 [1] = biological target: T1, CDK2/Cyclin E1 (Homo sapiens, UniProt P24941); experiment: HotSpot kinase inhibition assay (radiometric, Histone H1 substrate); assay type: biochemical; conditions: 10 μM ATP, read-out: Kinase Assay (CDK2/CCNE): IC50
Description: Inhibition of CDK2/CCNE1 activities in the presence of compounds of the present disclosure was evaluated using the HotSpot™ assay (proprietary to Reaction Biology Corporation). In the assay, CDK2/Cyclin E1 (Signalchem C29-18G) catalyzed the transfer of radioactive phosphate to amino acid residues of Histone H1 (Sigma, H5505), which are detected radiometrically.
Reactions contained 20 mM HEPES pH 7.5, 10 mM MgCl2, 1 mM EGTA, 2 mM DTT, 0.02% Brij35, 0.02 mg/mL BSA, 0.1 mM Na3VO4, 1% DMSO, 1.5 nM CDK2/Cyclin E1, 10 μM ATP, and 20 μM Histone H1.
CDK2/Cyclin E1 and Histone H1 were mixed in reaction buffer. To this mixture dose titrations of inhibitors in 100% DMSO were added in by acoustic transfer. The compound mixtures were incubated for 20 minutes, then the kinase reactions were initiated by the addition of a mixture of ATP and ^33P ATP for final concentrations of 10 μM total ATP, 20 μM Histone H1, and 1.5 nM CDK2/Cyclin E1. The reactions were carried out for 120 minutes, then spotted on a P81 ion exchange filter paper, and extensively washed with 0.75% phosphoric acid. The resulting radioactive counts were normalized to yield % activity, plotted against compound concentration, and fit to a four-parameter equation to determine the IC50 for each compound.

CDK2/Cyclin E1 [2] = biological target: T1, CDK2/Cyclin E1; experiment: CDK2/Cyclin E1 Caliper LabChip EZ Reader mobility shift assay; assay type: biochemical; design: purchased Eurofins 14-475; conditions: read-out: Caliper Assay (CDK2/CCNE1): IC50
Outline: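 Substrate-to-product conversion of fluorescent peptide (1.5 μM final) read by capillary electrophoresis after 100 min reaction, EDTA-quenched. Enzyme (2.5 nM final) and ATP (100 μM final) were preincubated 30 min with inhibitor dilutions first. % activity vs concentration fitted four-parameter for IC50.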

Kuramochi cells = experiment: BrdU cell proliferation assay (colorimetric ELISA); assay type: cell-based; conditions: read-out: BrdU - KURAMOCHI.1: IC50
Description: A BrdU assay was used as a measure of proliferation based on the DNA replication process of proliferating cells. BrdU, a pyrimidine analog, is added to the cell culture and incorporated into the DNA of proliferating cells. The presence of the BrdU analog was then measured through a colorimetric ELISA. After fixation and permeabilization of cells, peroxidase-conjugated antibody recognizing BrdU is added and allowed to incubate, followed by thorough washing to remove unbound antibody. In order to quantify the amount of bound antibody, peroxidase substrate is added and produces a color that can be measured at 450 nm.
On day −1, Kuramochi cells (Sekisui XenoTech JCRB0098) were seeded at 2,000 cells/well in columns 2-12 of a 96 well plate (Corning, CLS3596) in 150 μL media and allowed to adhere overnight at 37 degree with 5% CO2.
On day 0, the source plate was prepared by adding 10 mM compounds and performing 3-fold serial dilutions for a 10-point dose response of each compound. Using a multichannel pipette, 2 μL of the contents of the source plate were stamped into an intermediate plate with 500 μL of RPMI 1640 Media, GlutaMAX Supplement (Life Technologies, 61870127) in each well of a Nunc 96 DeepWell™ plate, non-treated 96 DeepWell plate, 2 mL/well, sterile, natural, 60/cs (Sigma Z717274) and mixed thoroughly. 50 μL from each well of this intermediate plate were added to 4 wells of a 96-well plate with previously seeded Kuramochi cells.
On day 4, the plates were developed using the BrdU ELISA Cell Proliferation Assay according to manufacturer's instructions (Roche, 11647229001). Briefly, BrdU was diluted 1:100 in Gibco®, OptiMEM® and 20 μL/well was added, shaken for 10 minutes at 350 rpm, and then returned to the incubator for 1 hour. Following incubation, the medium was discarded, and the cells were fixed by adding 200 μL of Fix/Denature solution. The anti-BrdU peroxidase antibody was diluted 1:1000 in OptiMEM, added at 100 μL/well, and incubated while shaking (350 rpm) for one hour. Three washes with PBS were performed to remove any unbound antibody, followed by the addition of 100 μL of substrate solution to each well. 25 μL/well of 1M sulfuric acid solution was then added to halt the reaction, and plates were read out using an Envision spectrophotometer (Perkin Elmer) set to read 450 nm absorbance. Background absorbance values from empty wells were subtracted from all samples and then normalized to DMSO treated wells.

Structure (SMILES)	IC50 (CDK2/Cyclin E1 [1]) [µM]	IC50 (CDK2/Cyclin E1 [2]) [µM]	IC50 (Kuramochi cells) [µM]
CNC(=O)[C@@H](NC(=O)C1CN(C(=O)c2cnn(Cc3ccccc3)c2)CC12CN(C(=O)C1CC1(C)C)C2)[C@@H](C)OCC1CCCCC1 (mixture of isomers) [I-12]	≤ 1	–	–
CNC(=O)[C@H](COCc1ccccc1)NC(=O)C1CN(C(=O)c2cnn(Cc3ccccc3)c2)CC12CN(C(=O)C1CC1(C)C)C2 (stereo partly drawn) [I-1]	1 to 10	–	–
CNC(=O)[C@@H](NC(=O)C1CN(C(=O)c2cnn(Cc3ccccc3)c2)CC12CN(C(=O)C1CC1(C)C)C2)[C@@H](C)OC (stereo partly drawn) [I-2, 6-(1-benzyl-1H-pyrazole-4-carbonyl)-2-(2,2-dimethylcyclopropane-1-carbonyl)-N-((2S,3R)-3-methoxy-1-(methylamino)-1-oxobutan-2-yl)-2,6-diazaspiro[3.4]octane-8-carboxamide]	10 to 100	–	–
CNC(=O)[C@@H](NC(=O)[C@@H]1CN(C(=O)c2cnn(Cc3ccccc3)c2)CC12CN(C(=O)OC(C)(C)C)C2)[C@@H](C)OCc1ccccc1 [I-3A, tert-butyl (S)-6-(1-benzyl-1H-pyrazole-4-carbonyl)-8-(((2S,3R)-3-(benzyloxy)-1-(methylamino)-1-oxobutan-2-yl)carbamoyl)-2,6-diazaspiro[3.4]octane-2-carboxylate]	≤ 1	0.1 to 1	–
CNC(=O)[C@@H](NC(=O)[C@H]1CN(C(=O)c2cnn(Cc3ccccc3)c2)CC12CN(C(=O)OC(C)(C)C)C2)[C@@H](C)OCc1ccccc1 [I-3B]	1 to 10	> 10	–
CNC(=O)[C@@H](NC(=O)[C@@H]1CN(C(=O)c2cnn(Cc3ccccc3)c2)CC12CN(C(=O)C1CC(C)(C)C1)C2)[C@@H](C)OCc1ccccc1 [I-4A]	10 to 100	–	–
CNC(=O)[C@@H](NC(=O)[C@H]1CN(C(=O)c2cnn(Cc3ccccc3)c2)CC12CN(C(=O)C1CC(C)(C)C1)C2)[C@@H](C)OCc1ccccc1 [I-4B]	> 100	–	–
CNC(=O)[C@@H](NC(=O)[C@@H]1CN(C(=O)c2cn[nH]c2)CC12CN(C(=O)C1CC1(C)C)C2)[C@@H](C)OCc1ccccc1 (stereo partly drawn) [I-5A]	≤ 1	–	–
CNC(=O)[C@@H](NC(=O)[C@H]1CN(C(=O)c2cn[nH]c2)CC12CN(C(=O)C1CC1(C)C)C2)[C@@H](C)OCc1ccccc1 (stereo partly drawn) [I-5B]	1 to 10	–	–
CNC(=O)[C@@H](NC(=O)C1CN(C(=O)c2cnn(Cc3ccccc3)c2)CC12CN(C(=O)C1CC1(C)C)C2)[C@@H](C)OCc1cccc(C#N)c1 (stereo partly drawn) [I-6]	> 100	–	–
C[C@H](CNC(=O)C1CN(C(=O)c2cnn(Cc3ccccc3)c2)CC12CN(C(=O)C1CC1(C)C)C2)OCc1ccccc1 (stereo partly drawn) [I-7]	≤ 1	–	–
CNC(=O)[C@@H](NC(=O)[C@@H]1CN(C(=O)c2cnn(Cc3ccccc3)c2)CC12CN(C(=O)CC1CC1)C2)[C@@H](C)OCc1ccccc1 [I-8A]	1 to 10	1 to 10	–
CNC(=O)[C@@H](NC(=O)[C@H]1CN(C(=O)c2cnn(Cc3ccccc3)c2)CC12CN(C(=O)CC1CC1)C2)[C@@H](C)OCc1ccccc1 [I-8B]	10 to 100	1 to 10	–
CNC(=O)[C@@H](NC(=O)C1CN(C(=O)c2cnn(CC3CCCCC3)c2)CC12CN(C(=O)C1CC1(C)C)C2)[C@@H](C)OCc1ccccc1 (stereo partly drawn) [I-10]	≤ 1	0.1 to 1	–
CNC(=O)[C@@H](NC(=O)C1CN(C(=O)c2cnn(Cc3ccccn3)c2)CC12CN(C(=O)C1CC1(C)C)C2)[C@@H](C)OCc1ccccc1 (stereo partly drawn) [I-11]	≤ 1	0.1 to 1	–
CNC(=O)[C@@H](NC(=O)C1CN(C(=O)c2cnn(Cc3ccncc3)c2)CC12CN(C(=O)C1CC1(C)C)C2)[C@@H](C)OCc1ccccc1 (stereo partly drawn) [I-13]	≤ 1	0.1 to 1	–

Structure (SMILES)	IC50 (CDK2/Cyclin E1 [1]) [µM]	IC50 (CDK2/Cyclin E1 [2]) [µM]	IC50 (Kuramochi cells) [µM]
CNC(=O)[C@@H](NC(=O)C1CN(C(=O)c2cnn(C)c2)CC12CN(C(=O)C1CC1(C)C)C2)[C@@H](C)OCc1ccccc1 (stereo partly drawn) [I-14, N-((2S,3R)-3-(benzyloxy)-1-(methylamino)-1-oxobutan-2-yl)-2-(2,2-dimethylcyclopropane-1-carbonyl)-6-(1-methyl-1H-pyrazole-4-carbonyl)-2,6-diazaspiro[3.4]octane-8-carboxamide]	1 to 10	1 to 10	–
CNC(=O)[C@@H](NC(=O)[C@H]1CN(Cc2cnn(C)c2)CC12CN(C(=O)[C@H]1CC1(C)C)C2)[C@@H](C)OCc1ccccc1 [I-47B]	–	> 10	> 10
C[C@@H](OCc1ccccc1)[C@H](NC(=O)C1CN(C(=O)c2cnn(Cc3ccccc3)c2)CC12CN(C(=O)C1CC1(C)C)C2)C(=O)NCCCCCN (stereo partly drawn) [I-57]	–	–	> 10
CNC(=O)[C@@H](NC(=O)C1CN(C(=O)c2cnn(Cc3ccccc3)c2)CC12CN(C(=O)C1CC1(C)C)C2)[C@@H](C)O (stereo partly drawn) [I-88 mixture]	10 to 100	–	–
COC[C@H]1CCCN(C(=O)[C@@H](NC(=O)[C@@H]2CN(C(=O)c3cncs3)CC23CN(C(=O)[C@H]2CC2(C)C)C3)[C@@H](C)OCC2CCCCC2)C1 [I-196A, (S)—N-((2S,3R)-3-(cyclohexylmethoxy)-1-((S)-3-(methoxymethyl)piperidin-1-yl)-1-oxobutan-2-yl)-2-((S)-2,2-dimethylcyclopropanecarbonyl)-6-(thiazole-5-carbonyl)-2,6-diazaspiro[3.4]octane-8-carboxamide]	≤ 1	≤ 0.01	–
Cc1ccc(CNC(=O)[C@@H]2CN(C(=O)c3cnn(Cc4ccccc4)c3)CC23CN(C(=O)[C@H]2CC2(C)C)C3)nn1 [I-252]	≤ 1	0.1 to 1	–
CC1(C)C[C@@H]1C(=O)N1CC2(CN(C(=O)c3cnn(Cc4ccccc4)c3)C[C@H]2C(=O)N2CCN(CC3CCCCC3)C(=O)C2)C1 [I-253]	1 to 10	0.1 to 1	–
CC1(C)C[C@@H]1C(=O)N1CC2(CN(C(=O)c3cnn(Cc4ccccc4)c3)C[C@H]2C(=O)N2CC[C@H](OCC3CCCCC3)C2)C1 [I-256]	1 to 10	0.1 to 1	–
C[C@@H](OCC1CCCCC1)[C@H](NC(=O)[C@@H]1CN(C(=O)c2cnn(Cc3ccccc3)c2)CC12CN(C(=O)[C@H]1CC1(C)C)C2)C(C)(C)O [I-281]	≤ 1	≤ 0.01	–
COC[C@H]1CCCN(C(=O)[C@@H](NC(=O)[C@@H]2CN(C(=O)c3cncs3)CC23CN(C(=O)[C@H]2CC2(C)C)C3)[C@@H](C)O[C@H](C)C2CCCCC2)C1 [I-367]	≤ 1	≤ 0.01	–
CC1(C)C[C@@H]1C(=O)N1CC2(CN(C(=O)c3cnn(Cc4ccccc4)c3)C[C@H]2C(=O)NCc2ccc(Cl)nn2)C1 [I-376]	1 to 10	1 to 10	–
CC1(C)C[C@@H]1C(=O)N1CC2(CN(C(=O)c3cnn(Cc4ccccc4)c3)C[C@H]2C(=O)NCc2ccc(C3CCCCC3)nn2)C1 [I-377]	≤ 1	0.1 to 1	–
Cc1ccc(CNC(=O)[C@@H]2CN(C(=O)c3cncs3)CC23CN(C(=O)[C@H]2CC2(C)C)C3)nn1 [I-378]	10 to 100	> 10	–
COC[C@H]1CCCN(C(=O)[C@@H](NC(=O)[C@@H]2CN(C(=O)c3cncs3)CC23CN(C(=O)[C@H]2CC2(C)C)C3)[C@@H](C)O[C@H](C)C2CCCCC2)C1 [I-466]	≤ 1	≤ 0.01	–
CNC(=O)[C@@H](NC(=O)C1(F)CN(C(=O)c2cnn(Cc3ccccc3)c2)CC12CN(C(=O)[C@H]1CC1(C)C)C2)[C@@H](C)OCc1ccccc1 (stereo partly drawn) [I-500]	–	0.1 to 1	–
CNC(=O)[C@@H](NC(=O)C1(F)CN(C(=O)c2cnn(Cc3ccccc3)c2)CC12CN(C(=O)[C@H]1CC1(C)C)C2)[C@@H](C)OCC1CCCCC1 (stereo partly drawn) [I-501]	–	0.01 to 0.1	–
